Laboratory results published in the supplement of paper PMC8671470.

Columns and labels:
Details in all cases: 72 h
BV-173 [1] = assay: cell viability (% survival relative to DMSO control, bortezomib = 0%); higher = less cytotoxic
Procedure, shortened: (§1)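 Percent survival figures are means of duplicate wells. They were obtained by CellTiter-Glo luminescence after 10 AML and 5 CML cell lines spent 72 h at 37 °C with 5% CO2 in 384-well plates with compounds at 1, 10, 100, 1000 or 10000 nM. Vehicle was set to 100% and a 10 µM positive control to 0%.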

THP-1 [2] = assay: as above
Procedure, shortened: as §1

HEL [3] = assay: as above
Procedure, shortened: as §1

ML-2 [4] = assay: as above
Procedure, shortened: as §1

HL-60 [5] = assay: as above
Procedure, shortened: as §1

MV4-11 [6] = assay: as above
Procedure, shortened: as §1

MOLM-13 [7] = assay: as above
Procedure, shortened: as §1

Mono-Mac-6 [8] = assay: as above
Procedure, shortened: as §1

NOMO-1 [9] = assay: as above
Procedure, shortened: as §1

KG-1 [10] = assay: as above
Procedure, shortened: as §1

SHI-1 [11] = assay: as above
Procedure, shortened: as §1

KU-812 [12] = assay: as above
Procedure, shortened: as §1

KCL-22 [13] = assay: as above
Procedure, shortened: as §1

K-562 [14] = assay: as above
Procedure, shortened: as §1

LAMA-84 [15] = assay: as above
Procedure, shortened: as §1

BV-173 [16] = system: BV-173
Procedure, shortened: (§2)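 The IC50 was read from log-logistic dose–response fits. Fifteen myeloid leukaemia lines were exposed for 72 h at 37 °C with 5% CO2 to five tenfold doses from 1 to 10,000 nM in duplicate. ATP luminescence, normalised to vehicle and to a 10 µM positive control, was fitted with four parameters.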

THP-1 [17] = system: THP-1
Procedure, shortened: as §2

HEL [18] = system: HEL
Procedure, shortened: as §2

ML-2 [19] = system: ML-2
Procedure, shortened: as §2

HL-60 [20] = system: HL-60
Procedure, shortened: as §2

MV4-11 [21] = system: MV4-11
Procedure, shortened: as §2

MOLM-13 [22] = system: MOLM-13
Procedure, shortened: as §2

Mono-Mac-6 [23] = system: Mono-Mac-6
Procedure, shortened: as §2

NOMO-1 [24] = system: NOMO-1
Procedure, shortened: as §2

KG-1 [25] = system: KG-1
Procedure, shortened: as §2

SHI-1 [26] = system: SHI-1
Procedure, shortened: as §2

KU-812 [27] = system: KU-812
Procedure, shortened: as §2

KCL-22 [28] = system: KCL-22
Procedure, shortened: as §2

K-562 [29] = system: K-562
Procedure, shortened: as §2

LAMA-84 [30] = system: LAMA-84
Procedure, shortened: as §2

CCCCCCCCCCCCCCOc1ccc(C(=O)O)o1 [TOFA]
cell viability [%]
Details | 1 nM | 10 nM | 100 nM | 1000 nM | 10000 nM
BV-173 [1] | 110 | 104 | 101 | 90.1 | 103
HEL [3] | 108 | 91.8 | 103 | 103 | 83.8
HL-60 [5] | 75.1 | 83.8 | 108 | 109 | 85.4
K-562 [14] | 100 | 93.4 | 92 | 108 | 114
KCL-22 [13] | 94.2 | 90.6 | 108 | 107 | 40.4
KG-1 [10] | 95.8 | 103 | 116 | 97.5 | 93.2
KU-812 [12] | 109 | 95 | 95.6 | 81.5 | 82.5
LAMA-84 [15] | 106 | 105 | 102 | 103 | 90.1
ML-2 [4] | 101 | 92.8 | 110 | 101 | 108
MOLM-13 [7] | 102 | 91.7 | 98.8 | 82.7 | 87
MV4-11 [6] | 87.6 | 87.9 | 104 | 98.4 | 96.2
Mono-Mac-6 [8] | 113 | 94.5 | 99.8 | 94.2 | 105
NOMO-1 [9] | 105 | 101 | 99.3 | 99 | 109
SHI-1 [11] | 113 | 85.6 | 110 | 98.9 | 89.9
THP-1 [2] | 98.2 | 101 | 97.9 | 86.4 | 88.8

Details | IC50 (cell viability) [µM]
BV-173 [16] | > 10
HEL [18] | > 10
HL-60 [20] | > 10
K-562 [29] | > 10
KCL-22 [28] | 8.33
KG-1 [25] | > 10
KU-812 [27] | > 10
LAMA-84 [30] | > 10
ML-2 [19] | > 10
MOLM-13 [22] | > 10
MV4-11 [21] | > 10
Mono-Mac-6 [23] | > 10
NOMO-1 [24] | > 10
SHI-1 [26] | > 10
THP-1 [17] | > 10

CN1CC(=O)N2[C@H](c3ccc4c(c3)OCO4)c3[nH]c4ccccc4c3C[C@@H]2C1=O [Tadalafil]
cell viability [%]
Details | 1 nM | 10 nM | 100 nM | 1000 nM | 10000 nM
BV-173 [1] | 95.5 | 87 | 89.6 | 96.8 | 88.3
HEL [3] | 103 | 77.5 | 93.1 | 98 | 94.7
HL-60 [5] | 106 | 75.2 | 107 | 72.9 | 117
K-562 [14] | 108 | 105 | 90.6 | 96.4 | 91
KCL-22 [13] | 103 | 89.2 | 92 | 101 | 81.7
KG-1 [10] | 107 | 98.4 | 99.8 | 103 | 99.4
KU-812 [12] | 98.8 | 87.8 | 99.2 | 106 | 96
LAMA-84 [15] | 101 | 97.9 | 96.8 | 102 | 103
ML-2 [4] | 95.6 | 94.1 | 92 | 101 | 94.9
MOLM-13 [7] | 106 | 85.3 | 98.4 | 97.9 | 73.3
MV4-11 [6] | 100 | 86.7 | 95.3 | 102 | 92.6
Mono-Mac-6 [8] | 99.8 | 93 | 94.8 | 95.4 | 99
NOMO-1 [9] | 97.8 | 95.1 | 96.6 | 105 | 108
SHI-1 [11] | 109 | 102 | 98.9 | 97.8 | 88.3
THP-1 [2] | 96.7 | 97.9 | 94.9 | 98.4 | 96.6

Details | IC50 (cell viability) [µM]
BV-173 [16] | > 10
HEL [18] | > 10
HL-60 [20] | > 10
K-562 [29] | > 10
KCL-22 [28] | > 10
KG-1 [25] | > 10
KU-812 [27] | > 10
LAMA-84 [30] | > 10
ML-2 [19] | > 10
MOLM-13 [22] | > 10
MV4-11 [21] | > 10
Mono-Mac-6 [23] | > 10
NOMO-1 [24] | > 10
SHI-1 [26] | > 10
THP-1 [17] | > 10

Cl.NC1=CCCN1Cc1nc(O)nc(O)c1Cl [Tipiracil]
cell viability [%]
Details | 1 nM | 10 nM | 100 nM | 1000 nM | 10000 nM
BV-173 [1] | 108 | 95.1 | 97.9 | 99.5 | 106
HEL [3] | 122 | 102 | 112 | 111 | 103
HL-60 [5] | 98.8 | 97.2 | 127 | 130 | 119
K-562 [14] | 106 | 99.8 | 105 | 115 | 106
KCL-22 [13] | 115 | 90.2 | 105 | 114 | 90.8
KG-1 [10] | 98.2 | 95.1 | 111 | 107 | 111
KU-812 [12] | 101 | 88.8 | 104 | 108 | 99.7
LAMA-84 [15] | 115 | 94.8 | 98.7 | 110 | 102
ML-2 [4] | 108 | 92.7 | 114 | 105 | 104
MOLM-13 [7] | 104 | 96.3 | 122 | 121 | 93.6
MV4-11 [6] | 107 | 105 | 109 | 104 | 106
Mono-Mac-6 [8] | 122 | 96.2 | 107 | 100 | 96.5
NOMO-1 [9] | 106 | 100 | 100 | 100 | 99.2
SHI-1 [11] | 107 | 106 | 125 | 113 | 116
THP-1 [2] | 102 | 97.2 | 102 | 101 | 101

Details | IC50 (cell viability) [µM]
BV-173 [16] | > 10
HEL [18] | > 10
HL-60 [20] | > 10
K-562 [29] | > 10
KCL-22 [28] | > 10
KG-1 [25] | > 10
KU-812 [27] | > 10
LAMA-84 [30] | > 10
ML-2 [19] | > 10
MOLM-13 [22] | > 10
MV4-11 [21] | > 10
Mono-Mac-6 [23] | > 10
NOMO-1 [24] | > 10
SHI-1 [26] | > 10
THP-1 [17] | > 10
